Results: patent US20080051418A1, “Arylalkanoic Acid Derivative” (priority 2004, published 2008)
Structures can show the parent of a compound that is named as a salt. Where two headings read alike, the source gives them in different places.

Assays:
KKA^y mice = assay: Blood glucose and blood lipid (triglyceride) lowering action in mice; type: in vivo; conditions: Mus musculus, po, 96 h, 0.005% in powder diet, 4 days, non-administration group = 100%
Excerpt: The test compound was mixed with a powder diet (CE-2, CLEA JAPAN, INC.) at a proportion of 0.005% (0.01% for the compound of Example 105) and freely given to KKA^y mice (9 to 12-week-old, 5 mice per group) which are obesity-insulin independent diabetes mellitus (type-2 diabetes) models, for 4 days. During this period, water was freely given. The blood was drawn from the orbital venous plexus. Glucose and triglyceride in the plasma separated from the blood were quantitated using L Type Wako Glu2 (Wako Pure Chemical Industries, Ltd.) and L Type Wako TG•H (Wako Pure Chemical Industries, Ltd.), respectively, according to an enzyme method.

PPARγ-RXRα heterodimer = target: T1, PPARγ-RXRα heterodimer (Homo sapiens, UniProt P37231); assay: PPARγ-RXRα heterodimer ligand activity (luciferase reporter); type: cell-based; conditions: PPARγ:RXRα:4ERPP/CHO-K1 cells, 18-24 hr, concentration showing 50% of the maximum induction rate
T1 construct: expressed in transfected cells; host or cells: CHO-K1
T1 sequence (P37231 1-505): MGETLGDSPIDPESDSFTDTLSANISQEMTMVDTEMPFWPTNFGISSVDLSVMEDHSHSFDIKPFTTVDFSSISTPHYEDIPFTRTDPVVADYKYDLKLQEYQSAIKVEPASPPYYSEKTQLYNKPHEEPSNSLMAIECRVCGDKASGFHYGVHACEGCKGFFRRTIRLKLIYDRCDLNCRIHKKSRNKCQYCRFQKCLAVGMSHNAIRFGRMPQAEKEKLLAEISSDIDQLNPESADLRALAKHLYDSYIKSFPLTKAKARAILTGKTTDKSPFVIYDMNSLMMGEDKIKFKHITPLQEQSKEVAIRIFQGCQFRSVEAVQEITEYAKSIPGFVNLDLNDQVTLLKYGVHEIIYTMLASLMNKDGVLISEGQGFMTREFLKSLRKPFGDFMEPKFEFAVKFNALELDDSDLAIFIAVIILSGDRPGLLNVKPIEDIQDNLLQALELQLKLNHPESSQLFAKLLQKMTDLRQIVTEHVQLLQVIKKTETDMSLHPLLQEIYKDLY
T1 sequence (P19793 1-462 partner): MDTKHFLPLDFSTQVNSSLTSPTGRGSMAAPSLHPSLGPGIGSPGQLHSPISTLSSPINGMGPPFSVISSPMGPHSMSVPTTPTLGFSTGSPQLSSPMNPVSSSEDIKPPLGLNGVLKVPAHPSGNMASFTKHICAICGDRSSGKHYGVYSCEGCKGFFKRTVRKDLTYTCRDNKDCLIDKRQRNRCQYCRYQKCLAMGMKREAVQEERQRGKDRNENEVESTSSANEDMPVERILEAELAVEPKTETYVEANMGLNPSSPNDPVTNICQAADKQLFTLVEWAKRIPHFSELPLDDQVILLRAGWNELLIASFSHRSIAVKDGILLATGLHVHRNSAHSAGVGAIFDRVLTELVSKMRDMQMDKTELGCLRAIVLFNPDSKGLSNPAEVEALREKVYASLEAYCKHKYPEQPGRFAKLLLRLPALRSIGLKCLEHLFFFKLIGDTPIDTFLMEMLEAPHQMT
Protocol: The PPARγ:RXRα:4ERPP/CHO-K1 cells described in WO03/099793 were cultured in a Ham F12 medium [manufactured by Life Technologies, Inc., US] containing 10% calf fetal serum [manufactured by Life Technologies, Inc., US], sown in a 96-well white plate [manufactured by Corning Coster Corporation, US] at 2×10^4 cells/well, and incubated overnight in a carbon dioxide gas incubator at 37° C.
Then, the medium was removed from the 96 well white plate, 80 μl of Ham F12 medium containing 0.1% fatty acid-free bovine serum albumin (BSA) and a test compound (20 μl) were added, and the cells were incubated for 18-24 hr in a carbon dioxide gas incubator at 37° C. The medium was removed, 40 μl of PicaGene 7.5 (manufactured by Wako Pure Chemical Industries, Ltd.) diluted 2-fold with HBSS (HANKS' BALANCED SALT SOLUTION) [manufactured by BIO WHITTAKER, US] was added. After stirring, the luciferase activity was determined using the 1420 ARVO Multilabel Counter [manufactured by PerkinElmer, US].
The induction rate was calculated from the luciferase activity of each test compound based on the luciferase activity of the test compound non-administration group as 1. The test compound concentration and the induction rate were analyzed by PRISM [manufactured by GraphPad Software, Inc., US] to calculate EC50 value (compound concentration showing 50% of the maximum value of induction rate) of the test compound.

[1] = lowering rate of plasma glucose, read-out: hypoglycemic action (%)
[2] = lowering rate of plasma triglyceride, read-out: hypolipidemic action (%)

Structure (SMILES) | EC50 (PPARγ-RXRα heterodimer) [nM] | melting point [°C] | inhibition in vivo at 0.005 % (KKA^y mice; [1]) [%] | inhibition in vivo at 0.005 % (KKA^y mice; [2]) [%]
COc1cccc(CC(=O)O)c1OCCCc1cc(OC(C)C)nn1C(C)c1ccc(Cl)cc1Cl (centres unmarked) [Example 17, [2-(3-{1-[1-(2,4-dichlorophenyl)ethyl]-3-isopropoxy-1H-pyrazol-5-yl}propoxy)-3-methoxyphenyl]acetic acid] | 6.2 |  | 57 | 78
COc1cccc(CC(=O)O)c1OCCCc1cc(OC(C)C)nn1Cc1ccccc1C [Example 21, (2-{3-[3-isopropoxy-1-(2-methylbenzyl)-1H-pyrazol-5-yl]propoxy}-3-methoxyphenyl)acetic acid] | 41 |  | 51 | 78
CC(C)Oc1cc(CCCOc2ncccc2CC(=O)O)n(Cc2ccc(Cl)cc2Cl)n1 [Example 31, (2-{3-[1-(2,4-dichlorobenzyl)-3-isopropoxy-1H-pyrazol-5-yl]propoxy}pyridin-3-yl)acetic acid] | 14 | 88 to 90 | 44 | 55
COc1cccc(CC(=O)O)c1OCCCc1cc(OC(C)C)nn1Cc1ccc(F)cc1F [Example 60, (2-{3-[1-(2,4-difluorobenzyl)-3-isopropoxy-1H-pyrazol-5-yl]propoxy}-3-methoxyphenyl)acetic acid] |  |  | 54 | 76
COc1cccc(CC(=O)O)c1OCCCc1cc(OC(C)C)nn1Cc1ccccc1Cl [Example 61, (2-{3-[1-(2-chlorobenzyl)-3-isopropoxy-1H-pyrazol-5-yl]propoxy}-3-methoxyphenyl)acetic acid] | 25 |  | 51 | 90
CC(C)c1cc(CCCOc2ncccc2CC(=O)O)n(Cc2ccc(C(F)(F)F)cc2Cl)n1 [Example 77, [2-(3-{1-[2-chloro-4-(trifluoromethyl)benzyl]-3-isopropyl-1H-pyrazol-5-yl}propoxy)pyridin-3-yl]acetic acid] | 5.4 | 114 to 115 | 63 | 42
CC(C)Oc1cc(CCCOc2nn(Cc3ccccc3)cc2CC(=O)O)n(Cc2ccc(Cl)cc2Cl)n1 [Example 86, (1-benzyl-3-{3-[1-(2,4-dichlorobenzyl)-3-isopropoxy-1H-pyrazol-5-yl]propoxy}-1H-pyrazol-4-yl)acetic acid] | 2.5 | 108 to 110 | 51 | 51
CC(C)Oc1ccc(CCCOc2cc(CCC(=O)O)n(C3CCCCC3)n2)c(Oc2ncc(C(F)(F)F)cc2Cl)c1 [Example 144, 3-{3-[3-(2-{[3-chloro-5-(trifluoromethyl)pyridin-2-yl]oxy}-4-isopropoxyphenyl)propoxy]-1-cyclohexyl-1H-pyrazol-5-yl}propanoic acid] | 3.7 | 114 to 115 |  | 
CCn1nc(OCCCc2ccc(OCCOC)cc2Oc2ncc(C(F)(F)F)cc2Cl)cc1CCC(=O)O [Example 149, 3-(3-{3-[2-{[3-chloro-5-(trifluoromethyl)pyridin-2-yl]oxy}-4-(2-methoxyethoxy)phenyl]propoxy}-1-ethyl-1H-pyrazol-5-yl)propanoic acid] | 5 | 101 to 103 | 57 | 51
CCn1nc(OCCCc2ccc(OCCOC(C)C)cc2Oc2ncc(C(F)(F)F)cc2Cl)cc1CCC(=O)O [Example 150, 3-(3-{3-[2-{[3-chloro-5-(trifluoromethyl)pyridin-2-yl]oxy}-4-(2-isopropoxyethoxy)phenyl]propoxy}-1-ethyl-1H-pyrazol-5-yl)propanoic acid] | 2.6 | 130.5 to 131.5 | 58 | 54

More lines, main results first:

EC50 (PPARγ-RXRα heterodimer) [nM] | melting point [°C] | Structure (SMILES) | inhibition in vivo at 0.005 % (KKA^y mice; [1]) [%] | inhibition in vivo at 0.005 % (KKA^y mice; [2]) [%]
1.5 |  | CC(C)c1cc(CCCOc2nn(Cc3ccccc3)cc2CC(=O)O)n(Cc2ccc(C(F)(F)F)cc2Cl)n1 [Example 76, [1-benzyl-3-(3-{1-[2-chloro-4-(trifluoromethyl)benzyl]-3-isopropyl-1H-pyrazol-5-yl}propoxy)-1H-pyrazol-4-yl]acetic acid 1/2 calcium salt] | 64 | 57
1.3 |  | Cc1cc(C(F)(F)F)ccc1Cn1nc(OC(C)C)cc1CCCOc1nn(Cc2ccccc2)cc1CC(=O)O [Example 78, [1-benzyl-3-(3-{3-isopropoxy-1-[2-methyl-4-(trifluoromethyl)benzyl]-1H-pyrazol-5-yl}propoxy)-1H-pyrazol-4-yl]acetic acid] | 63 | 55
2.4 | 89.5 to 91.5 | COCOc1cc(CCCOc2nn(Cc3ccccc3)cc2CC(=O)O)n(Cc2ccc(Cl)cc2Cl)n1 [Example 95, (1-benzyl-3-{3-[1-(2,4-dichlorobenzyl)-3-(methoxymethoxy)-1H-pyrazol-5-yl]propoxy}-1H-pyrazol-4-yl)acetic acid] | 65 | 65
0.61 | 99 to 100 | CC(C)Oc1ccc(CCCOc2cc(CCC(=O)O)n(Cc3ccccc3)n2)c(Oc2ncc(C(F)(F)F)cc2Cl)c1 [Example 137, 3-{1-benzyl-3-[3-(2-{[3-chloro-5-(trifluoromethyl)pyridin-2-yl]oxy}-4-isopropoxyphenyl)propoxy]-1H-pyrazol-5-yl}propanoic acid] |  | 
1.5 | 103.5 to 104.5 | CC(C)OCCOc1ccc(CCCOc2nn(C)cc2CC(=O)O)c(Oc2ncc(C(F)(F)F)cc2Cl)c1 [Example 177, (3-{3-[2-{[3-chloro-5-(trifluoromethyl)pyridin-2-yl]oxy}-4-(2-isopropoxyethoxy)phenyl]propoxy}-1-methyl-1H-pyrazol-4-yl)acetic acid] |  | 
